Measurements: patent US10221139B2, “Inhibitors of histone demethylases” (Gilead Sciences, Inc., priority 2012, dated 2019)

Tests used:
Assay type in all cases: biochemical
[1] = biological target: T1, GASC1 (KDM4C, JMJD2C) (Homo sapiens, UniProt Q9H3R0); test: Histone lysine demethylase AlphaLISA assay, GASC1; conditions: substrate BK9M3
T1 construct: 1-349; host or cells: E. coli
T1 sequence (Q9H3R0 1-349): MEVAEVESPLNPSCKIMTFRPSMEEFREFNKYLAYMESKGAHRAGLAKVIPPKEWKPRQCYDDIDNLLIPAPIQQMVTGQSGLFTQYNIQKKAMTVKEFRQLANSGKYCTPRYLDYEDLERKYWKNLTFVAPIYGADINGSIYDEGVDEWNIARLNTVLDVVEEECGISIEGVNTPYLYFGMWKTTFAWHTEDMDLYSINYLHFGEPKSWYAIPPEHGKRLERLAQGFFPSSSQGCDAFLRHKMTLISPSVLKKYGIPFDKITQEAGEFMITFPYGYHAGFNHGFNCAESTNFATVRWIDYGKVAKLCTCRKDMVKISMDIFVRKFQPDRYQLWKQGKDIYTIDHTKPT
Procedure, shortened: (§1)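 Per-enzyme reaction conditions apply; each enzyme sees compound for 10 min ahead of substrate addition. Bead-based AlphaLISA detection at room temperature, protected from light, gives the IC50.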

[2] = biological target: T2, JMJD1B (KDM3B) (Homo sapiens, UniProt Q7LBC6); test: Histone lysine demethylase AlphaLISA assay, JMJD1B; conditions: substrate BK9M2
T2 construct: 842-1761; host or cells: Bac (baculovirus)
T2 sequence (Q7LBC6 842-1761): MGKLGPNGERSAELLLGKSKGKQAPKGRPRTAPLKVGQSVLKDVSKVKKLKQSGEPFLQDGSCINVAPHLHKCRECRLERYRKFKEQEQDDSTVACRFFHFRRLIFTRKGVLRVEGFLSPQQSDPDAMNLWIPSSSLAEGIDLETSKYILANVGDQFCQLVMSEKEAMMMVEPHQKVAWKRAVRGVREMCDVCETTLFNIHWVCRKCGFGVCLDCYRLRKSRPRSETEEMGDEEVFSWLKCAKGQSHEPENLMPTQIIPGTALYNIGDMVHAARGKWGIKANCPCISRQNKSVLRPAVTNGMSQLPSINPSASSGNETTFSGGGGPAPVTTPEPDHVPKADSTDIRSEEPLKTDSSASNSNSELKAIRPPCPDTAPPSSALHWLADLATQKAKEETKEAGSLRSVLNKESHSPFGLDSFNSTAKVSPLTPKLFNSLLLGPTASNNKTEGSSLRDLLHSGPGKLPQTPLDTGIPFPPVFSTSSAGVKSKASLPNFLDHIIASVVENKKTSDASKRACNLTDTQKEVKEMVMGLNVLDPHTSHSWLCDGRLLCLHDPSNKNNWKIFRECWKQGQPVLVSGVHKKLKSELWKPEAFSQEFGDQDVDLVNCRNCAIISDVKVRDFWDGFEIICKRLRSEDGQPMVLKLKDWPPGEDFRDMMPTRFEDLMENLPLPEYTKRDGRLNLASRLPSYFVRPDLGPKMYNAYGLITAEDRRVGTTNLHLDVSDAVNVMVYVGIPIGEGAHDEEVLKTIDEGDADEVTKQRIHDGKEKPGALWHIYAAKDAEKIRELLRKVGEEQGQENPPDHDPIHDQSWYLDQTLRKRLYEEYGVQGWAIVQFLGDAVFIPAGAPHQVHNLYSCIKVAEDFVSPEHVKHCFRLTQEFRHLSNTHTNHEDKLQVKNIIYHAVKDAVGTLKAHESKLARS
Description: (§2) Example 2: Histone Lysine Demethylase AlphaLISA Assays for IC50 Value Determination
(§3) Assays are performed analogously to the protocol described by Perkin Elmer (Roy et al. Perkin Elmer Technical Note: AlphaLISA #12, April 2011).
(§4) Enzymes are dissolved in enzyme buffer and incubated for 10 min before 5 μL is added to 5 μL 3% DMSO solutions of compounds in enzyme buffer. Incubated for another 10 minutes, before 5 μL substrate solution is added and the reaction mixture is incubated at room temperature for the given period. 10 μL acceptor beads, suspended at given dilutions in Epigenetic Buffer (Perkin Elmer AL008) from stock, are added and the suspension is incubated 60 minutes in the dark at room temperature, before 10 μL suspension (at the given dilutions in Epigenetic Buffer) of streptavidin donor beads (Perkin Elmer 6760002) in Epigenetic Buffer is added. After incubation at room temperature in the dark the plates are read. Reaction conditions are seen in Table 2b.

[3] = biological target: T3, JMJD2A (KDM4A) (Homo sapiens, UniProt O75164); test: Histone lysine demethylase AlphaLISA assay, JMJD2A; conditions: substrate BK9M3
T3 construct: 1-350; purchased BPS, Bioscience, US; host or cells: E. coli
T3 sequence (O75164 1-350): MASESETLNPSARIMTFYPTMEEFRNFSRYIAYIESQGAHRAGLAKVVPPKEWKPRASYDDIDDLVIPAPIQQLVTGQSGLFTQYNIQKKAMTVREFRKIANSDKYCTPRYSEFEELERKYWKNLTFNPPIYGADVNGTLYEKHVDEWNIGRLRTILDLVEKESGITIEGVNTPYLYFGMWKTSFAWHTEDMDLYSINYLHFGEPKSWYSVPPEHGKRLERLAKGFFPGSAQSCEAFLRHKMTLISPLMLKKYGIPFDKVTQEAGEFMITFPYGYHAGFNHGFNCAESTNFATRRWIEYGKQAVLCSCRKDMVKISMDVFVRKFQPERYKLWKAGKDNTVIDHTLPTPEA
Description: as §2, §3, §4

[4] = biological target: T4, JMJD2B (KDM4B) (Homo sapiens, UniProt O94953); test: Histone lysine demethylase AlphaLISA assay, JMJD2B; conditions: substrate BK9M3, read-out: JMUD2B IC50
T4 construct: 2-500; purchased BPS; host or cells: Bac (baculovirus)
T4 sequence (O94953 2-500): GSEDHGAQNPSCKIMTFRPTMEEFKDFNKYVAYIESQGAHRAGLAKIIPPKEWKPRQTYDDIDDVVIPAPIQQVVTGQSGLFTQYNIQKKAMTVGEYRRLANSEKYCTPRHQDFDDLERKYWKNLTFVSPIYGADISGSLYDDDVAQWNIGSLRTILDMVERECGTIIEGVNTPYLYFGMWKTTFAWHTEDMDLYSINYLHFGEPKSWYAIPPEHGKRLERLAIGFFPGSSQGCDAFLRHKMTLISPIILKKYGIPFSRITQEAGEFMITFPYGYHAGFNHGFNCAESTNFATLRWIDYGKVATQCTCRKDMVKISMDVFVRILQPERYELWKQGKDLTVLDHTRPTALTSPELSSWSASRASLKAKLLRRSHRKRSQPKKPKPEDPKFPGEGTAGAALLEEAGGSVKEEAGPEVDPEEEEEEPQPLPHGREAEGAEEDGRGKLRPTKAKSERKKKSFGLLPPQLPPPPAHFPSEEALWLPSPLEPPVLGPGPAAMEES
Description: as §2, §3, §4

[5] = biological target: T5, JMJD3 (KDM6B) (Homo sapiens, UniProt O15054); test: Histone lysine demethylase AlphaLISA assay, JMJD3; conditions: substrate BK27M3
T5 construct: 1043-end; purchased BPS; host or cells: Bac (baculovirus)
T5 sequence (O15054 1043-1682 isoform O15054-1 limits assumed): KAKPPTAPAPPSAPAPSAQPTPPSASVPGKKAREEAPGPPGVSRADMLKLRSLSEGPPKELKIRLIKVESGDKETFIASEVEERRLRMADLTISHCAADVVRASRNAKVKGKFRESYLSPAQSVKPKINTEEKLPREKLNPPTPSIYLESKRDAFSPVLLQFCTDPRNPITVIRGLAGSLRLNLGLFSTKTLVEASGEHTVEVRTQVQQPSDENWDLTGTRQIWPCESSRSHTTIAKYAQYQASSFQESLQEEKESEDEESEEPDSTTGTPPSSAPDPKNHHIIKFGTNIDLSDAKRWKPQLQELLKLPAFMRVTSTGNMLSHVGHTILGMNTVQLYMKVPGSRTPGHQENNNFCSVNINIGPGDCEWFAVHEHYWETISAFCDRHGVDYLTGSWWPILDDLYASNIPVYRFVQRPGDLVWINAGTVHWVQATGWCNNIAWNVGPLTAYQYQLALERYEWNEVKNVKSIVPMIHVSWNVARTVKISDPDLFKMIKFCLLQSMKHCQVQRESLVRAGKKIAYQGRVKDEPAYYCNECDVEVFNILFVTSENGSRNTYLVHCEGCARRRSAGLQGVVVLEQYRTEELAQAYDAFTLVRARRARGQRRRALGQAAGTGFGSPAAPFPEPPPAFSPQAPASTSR
Description: as §2, §3, §4

[6] = biological target: T6, UTX (KDM6A) (Homo sapiens, UniProt O15550); test: Histone lysine demethylase AlphaLISA assay, UTX; conditions: substrate BK27M3
T6 construct: 919-1401; host or cells: E. coli
T6 sequence (O15550 919-1401): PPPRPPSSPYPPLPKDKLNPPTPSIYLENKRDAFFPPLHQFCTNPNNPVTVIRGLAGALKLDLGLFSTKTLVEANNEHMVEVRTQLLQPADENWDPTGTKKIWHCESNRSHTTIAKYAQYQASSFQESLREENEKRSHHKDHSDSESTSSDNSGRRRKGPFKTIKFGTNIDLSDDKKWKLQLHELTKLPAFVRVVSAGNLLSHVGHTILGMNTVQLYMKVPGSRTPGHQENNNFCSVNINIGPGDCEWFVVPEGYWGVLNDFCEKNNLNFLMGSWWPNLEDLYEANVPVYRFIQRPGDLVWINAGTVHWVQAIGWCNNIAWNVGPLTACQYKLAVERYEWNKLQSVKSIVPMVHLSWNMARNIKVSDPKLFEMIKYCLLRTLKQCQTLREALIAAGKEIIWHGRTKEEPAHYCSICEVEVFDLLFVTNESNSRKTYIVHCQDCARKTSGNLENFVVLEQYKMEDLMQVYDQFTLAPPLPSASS
Procedure, shortened: as §1

[7] = biological target: T7, FBXL10 (KDM2B) (Homo sapiens, UniProt Q8NHM5); test: Histone lysine demethylase AlphaLISA assay, FBXL10; conditions: substrate BH3K36M2
T7 construct: 1-650; purchased BPS, Bioscience, US; host or cells: Bac (baculovirus)
T7 sequence (Q8NHM5 1-650): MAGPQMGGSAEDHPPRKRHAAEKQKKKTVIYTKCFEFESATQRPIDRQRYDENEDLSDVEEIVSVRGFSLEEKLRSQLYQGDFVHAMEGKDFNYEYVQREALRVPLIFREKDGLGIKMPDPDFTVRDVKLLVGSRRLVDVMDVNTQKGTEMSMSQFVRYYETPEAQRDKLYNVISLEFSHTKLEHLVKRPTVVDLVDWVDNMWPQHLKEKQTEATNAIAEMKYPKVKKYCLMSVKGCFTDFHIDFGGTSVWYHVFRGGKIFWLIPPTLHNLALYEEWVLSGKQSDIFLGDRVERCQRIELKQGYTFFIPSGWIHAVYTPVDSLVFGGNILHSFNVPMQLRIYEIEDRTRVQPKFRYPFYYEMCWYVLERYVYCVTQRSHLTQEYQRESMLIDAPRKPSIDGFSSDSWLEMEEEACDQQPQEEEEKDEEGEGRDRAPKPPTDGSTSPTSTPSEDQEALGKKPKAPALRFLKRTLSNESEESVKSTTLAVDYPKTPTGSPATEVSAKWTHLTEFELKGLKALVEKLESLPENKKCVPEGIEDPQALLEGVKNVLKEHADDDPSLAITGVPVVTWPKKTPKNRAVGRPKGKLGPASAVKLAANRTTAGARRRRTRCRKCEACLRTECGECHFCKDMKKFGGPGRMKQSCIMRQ
Description: as §2, §3, §4

[8] = biological target: T8, JARID1C (KDM5C) (Homo sapiens, UniProt P41229); test: Histone lysine demethylase AlphaLISA assay, JARID1C; conditions: substrate H3K4M3B
T8 construct: 2-1560; purchased BPS; host or cells: Bac (baculovirus)
T8 sequence (P41229 2-1560): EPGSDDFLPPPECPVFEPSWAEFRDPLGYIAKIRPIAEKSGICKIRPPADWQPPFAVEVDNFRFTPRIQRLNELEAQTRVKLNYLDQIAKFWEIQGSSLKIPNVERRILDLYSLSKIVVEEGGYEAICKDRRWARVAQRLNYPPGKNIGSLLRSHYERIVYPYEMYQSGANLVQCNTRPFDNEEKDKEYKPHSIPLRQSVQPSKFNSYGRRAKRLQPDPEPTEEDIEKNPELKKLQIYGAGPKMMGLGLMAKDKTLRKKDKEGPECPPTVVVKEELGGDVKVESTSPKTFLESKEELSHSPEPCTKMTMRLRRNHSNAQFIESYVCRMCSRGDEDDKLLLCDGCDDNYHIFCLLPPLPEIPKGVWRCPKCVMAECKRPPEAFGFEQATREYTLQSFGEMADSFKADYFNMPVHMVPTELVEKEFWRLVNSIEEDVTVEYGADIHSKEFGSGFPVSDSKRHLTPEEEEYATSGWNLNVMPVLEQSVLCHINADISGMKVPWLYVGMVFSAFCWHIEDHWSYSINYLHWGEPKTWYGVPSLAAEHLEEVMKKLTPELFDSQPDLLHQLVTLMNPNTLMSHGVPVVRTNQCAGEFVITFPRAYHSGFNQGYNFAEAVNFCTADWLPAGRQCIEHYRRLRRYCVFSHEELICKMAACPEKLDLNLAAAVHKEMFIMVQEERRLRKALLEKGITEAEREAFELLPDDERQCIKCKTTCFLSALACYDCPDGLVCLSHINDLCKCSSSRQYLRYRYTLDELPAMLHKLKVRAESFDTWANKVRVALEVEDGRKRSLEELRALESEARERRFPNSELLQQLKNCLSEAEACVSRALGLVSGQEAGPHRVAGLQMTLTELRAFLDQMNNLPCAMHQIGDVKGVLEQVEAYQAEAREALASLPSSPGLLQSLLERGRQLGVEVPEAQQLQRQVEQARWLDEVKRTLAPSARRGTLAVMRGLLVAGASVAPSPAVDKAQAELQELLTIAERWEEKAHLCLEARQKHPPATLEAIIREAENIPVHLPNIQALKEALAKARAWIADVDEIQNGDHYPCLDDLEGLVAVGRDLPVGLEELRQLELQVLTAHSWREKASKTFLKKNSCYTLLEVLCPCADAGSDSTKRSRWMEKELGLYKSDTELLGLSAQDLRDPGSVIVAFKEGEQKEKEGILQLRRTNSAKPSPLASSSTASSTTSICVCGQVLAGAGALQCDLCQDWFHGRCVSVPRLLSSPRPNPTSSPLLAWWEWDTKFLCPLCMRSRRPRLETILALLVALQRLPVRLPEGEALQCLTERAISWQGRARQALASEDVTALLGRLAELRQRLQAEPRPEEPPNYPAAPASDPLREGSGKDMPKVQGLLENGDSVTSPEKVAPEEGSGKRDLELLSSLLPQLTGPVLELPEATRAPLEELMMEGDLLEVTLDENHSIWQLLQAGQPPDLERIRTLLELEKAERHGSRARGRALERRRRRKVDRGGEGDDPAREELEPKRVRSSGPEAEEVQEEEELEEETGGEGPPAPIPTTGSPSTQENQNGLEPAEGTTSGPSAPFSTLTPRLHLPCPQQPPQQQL
Description: as §2, §3, §4

[9] = biological target: T9, PHF8 (KDM7) (Homo sapiens, UniProt Q9UPP1); test: Histone lysine demethylase AlphaLISA assay, PHF8; conditions: substrate BK9M2
T9 construct: KDM7 (PHF8); BRIC; 1-1322; Bac
T9 sequence (Q9UPP1 37-477 limits assumed): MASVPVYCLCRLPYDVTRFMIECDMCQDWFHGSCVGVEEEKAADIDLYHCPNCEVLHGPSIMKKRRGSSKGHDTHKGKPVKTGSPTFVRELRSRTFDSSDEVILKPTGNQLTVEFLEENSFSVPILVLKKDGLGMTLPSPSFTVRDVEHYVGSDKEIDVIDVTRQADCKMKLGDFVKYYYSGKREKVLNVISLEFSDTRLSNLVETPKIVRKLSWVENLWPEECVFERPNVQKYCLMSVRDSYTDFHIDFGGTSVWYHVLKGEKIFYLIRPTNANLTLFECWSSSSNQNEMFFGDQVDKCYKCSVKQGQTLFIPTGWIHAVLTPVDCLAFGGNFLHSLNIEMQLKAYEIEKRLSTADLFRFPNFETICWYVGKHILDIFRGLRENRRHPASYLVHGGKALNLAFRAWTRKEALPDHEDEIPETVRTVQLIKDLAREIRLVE
Description: as §2, §3, §4

[10] = biological target: T10, PLU1 (KDM5B) (Homo sapiens, UniProt Q9UGL1); test: Histone lysine demethylase AlphaLISA assay, PLU1; conditions: substrate H3K4M3B
T10 construct: 1-809; host or cells: E. coli
T10 sequence (Q9UGL1 1-809): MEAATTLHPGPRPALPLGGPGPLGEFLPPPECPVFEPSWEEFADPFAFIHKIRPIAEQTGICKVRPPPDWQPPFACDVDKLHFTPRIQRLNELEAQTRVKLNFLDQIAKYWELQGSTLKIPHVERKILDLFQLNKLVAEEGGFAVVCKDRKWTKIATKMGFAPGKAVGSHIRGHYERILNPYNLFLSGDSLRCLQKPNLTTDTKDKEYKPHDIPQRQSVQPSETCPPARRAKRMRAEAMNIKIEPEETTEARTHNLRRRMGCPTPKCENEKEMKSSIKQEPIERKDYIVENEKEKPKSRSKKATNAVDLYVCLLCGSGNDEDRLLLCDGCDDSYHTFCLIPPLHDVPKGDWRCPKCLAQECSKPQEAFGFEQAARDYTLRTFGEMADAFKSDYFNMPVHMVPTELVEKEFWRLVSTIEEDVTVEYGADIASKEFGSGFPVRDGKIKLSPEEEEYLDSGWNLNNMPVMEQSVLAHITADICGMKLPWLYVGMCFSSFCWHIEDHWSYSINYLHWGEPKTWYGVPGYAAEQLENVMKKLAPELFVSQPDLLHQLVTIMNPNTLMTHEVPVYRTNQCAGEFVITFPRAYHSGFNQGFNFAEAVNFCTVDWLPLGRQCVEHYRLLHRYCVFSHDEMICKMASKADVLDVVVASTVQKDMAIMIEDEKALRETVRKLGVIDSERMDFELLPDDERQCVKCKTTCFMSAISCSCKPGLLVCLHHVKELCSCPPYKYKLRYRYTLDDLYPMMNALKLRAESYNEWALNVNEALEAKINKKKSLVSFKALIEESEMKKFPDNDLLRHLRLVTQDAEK
Procedure, shortened: as §1

IC50 [1] | IC50 [2] | IC50 [3] | IC50 [4] | IC50 [5] | IC50 [6] | IC50 [7] | IC50 [8] | IC50 [9] | IC50 [10] | Compound
< 100 nM | ≥ 1000 nM | < 100 nM | < 100 nM | ≥ 1000 nM | ≥ 1000 nM |  |  |  |  | CN(C)CCNCc1cc(C(=O)O)ccn1 [#2, 2-({[2-(dimethylamino)ethyl]amino}methyl)pyridine-4-carboxylic acid]
100 to 1000 nM |  | < 100 nM |  | ≥ 1000 nM | ≥ 1000 nM | ≥ 1000 nM | < 100 nM |  |  | O=C(O)c1ccnc(CNCCCn2ccnc2)c1 [#1, 2-({[3-(1H-imidazol-1-yl)propyl]amino}methyl)pyridine-4-carboxylic acid]
≥ 1000 nM | ≥ 1000 nM | 100 to 1000 nM | 100 to 1000 nM | ≥ 1000 nM | ≥ 1000 nM | ≥ 1000 nM |  | ≥ 1000 nM |  | O=C(O)c1ccnc(CN[C@@H]2CCN(CCCc3ccccc3)C2)c1 [#28, 2-({[(3R)-1-(3-phenylpropyl)pyrrolidin-3-yl]amino}methyl)pyridine-4-carboxylic acid]
≥ 1000 nM | ≥ 1000 nM | ≥ 1000 nM | ≥ 1000 nM | ≥ 1000 nM | ≥ 1000 nM |  |  |  | < 100 nM | COc1ccc(CNCc2cc(C(=O)O)ccn2)c(OC)c1 [#11, 2-({[(2,4-dimethoxyphenyl)methyl]amino}methyl)pyridine-4-carboxylic acid]
100 to 1000 nM |  | < 100 nM | < 100 nM | ≥ 1000 nM | ≥ 1000 nM |  | < 100 nM |  | < 100 nM | Cn1c(CNCc2cc(C(=O)O)ccn2)nc2ccccc21 [#15, 2-({[(1-methyl-1H-1,3-benzodiazol-2-yl)methyl]amino}methyl)pyridine-4-carboxylic acid]
100 to 1000 nM |  | 100 to 1000 nM | < 100 nM | ≥ 1000 nM | ≥ 1000 nM |  | < 100 nM | ≥ 1000 nM | < 100 nM | O=C(O)c1ccnc(CNCCCN2CCCC2)c1 [#46, 2-({[3-(pyrrolidin-1-yl)propyl]amino}methyl)pyridine-4-carboxylic acid]
< 100 nM |  | ≥ 1000 nM | < 100 nM | ≥ 1000 nM | ≥ 1000 nM |  | < 100 nM | ≥ 1000 nM | < 100 nM | CCN(CC)CCCCNCc1cc(C(=O)O)ccn1 [#48, 2-({[4-(diethylamino)butyl]amino}methyl)pyridine-4-carboxylic acid]
